Data: patent US7595401B2, “Therapeutic compounds and their use in cancer” (Myriad Pharmaceuticals, Inc., priority 2006, dated 2009)

Tested on: purified human Hsp90
Test: Binding Assay: fluorescence polarization with BODIPY-labeled geldanamycin
Conditions: 5 μM compound, BODIPY-GM 10 nM, Hsp90 30 nM
How it was run: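 Compounds in 2% DMSO final compete with 10 nM BODIPY-GM for 30 nM purified human Hsp90, incubated overnight at room temperature in pH 7.3 HEPES buffer containing Na2MoO4 and DTT. Polarization (mP, ex/em 485/530) normalized to DMSO gives percent inhibition; autofluorescence-confounded data excluded.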

Row | SMILES | % Inhibition at 5 μM Compound Concentration [%]
1 | CCCCNC(=O)Nc1ccc(CCn2cnc(N)c3nc(Sc4cc(OC)ccc4OC)nc2-3)cc1 [Example 278, N-[4-(2-{6-Amino-8-[(2,5-dimethoxyphenyl)thio]-3H-purin-3-yl}ethyl)phenyl]-N′-butylurea] | 1.0
2 | Nc1ncn(CCc2ccccc2)c2nc(Sc3ccc4ncoc4c3)nc1-2 [Example 284, 8-(1,3-Benzoxazol-6-ylthio)-3-(2-phenylethyl)-3H-purin-6-amine] | 3.0
3 | COc1ccc(OC)c(Sc2nc3c(N)ncn(CCc4cccc(Br)c4)c-3n2)c1 [Example 78, 3-[2-(3-bromo-phenyl)-ethyl]-8-(2,5-dimethoxy-phenylsulfanyl)-3H-purin-6-ylamine] | 17
4 | Nc1ncnc2c1nc(Sc1ccc3c(c1)OCO3)n2CCc1ccc([N+](=O)[O-])cc1 [Example 7, 8-(Benzo[1,3]dioxol-5-ylsulfanyl)-9-[2-(4-nitro-phenyl)-ethyl]-9H-purin-6-ylamine] | 22
5 | CC(C)(C)C(=O)N1CCC(CCn2cnc(N)c3nc(Sc4cc5c(cc4Br)OCO5)nc2-3)CC1 [Example 452, 8-[(6-Bromo-1,3-benzodioxol-5-yl)thio]-3-{2-[1-(2,2-dimethylpropanoyl)piperidin-4-yl]ethyl}-3H-purin-6-amine] | 21
6 | CC(C)(C)OC(=O)N1CCC(CCn2cnc(N)c3nc(Sc4cc5c(cc4Br)OCO5)nc2-3)CC1 [Example 344, tert-Butyl 4-(2-{6-amino-8-[(6-bromo-1,3-benzodioxol-5-yl)thio]-3H-purin-3-yl}ethyl)piperidine-1-carboxylate] | 22
7 | COc1ccc(OC)c(Sc2nc3c(N)ncnc3n2CCc2cc(C)cc(C)c2)c1 [Example 132, 8-(2,5-Dimethoxy-phenylsulfanyl)-9-[2-(3,5-dimethyl-phenyl)-ethyl]-9H-purine-6-ylamine] | 54
8 | CC(C)(NCCn1cnc(N)c2nc(Sc3cc4c(cc3Br)OCO4)nc1-2)c1ccccn1 [Example 333, 8-[(6-Bromo-1,3-benzodioxol-5-yl)thio]-3-{2-[(1-methyl-1-pyridin-2-ylethyl)amino]ethyl}-3H-purin-6-amine] | 43.0
9 | Nc1ncn(CCc2ccsc2)c2nc(Sc3cc4c(cc3Br)OCO4)nc1-2 [Example 202, 8-(6-bromo-benzo[1,3]dioxol-5-ylsulfanyl)-3-(2-thiophen-3-yl-ethyl)-3H-purin-6-ylamine] | 9
10 | COc1ccc(OC)c(Sc2nc3c(N)ncn(CCc4ccc(NC(=O)OC(C)(C)C)cc4)c-3n2)c1 [Example 215, (4-{2-[6-amino-8-(2,5-dimethoxy-phenylsulfanyl)-purin-3-yl]-ethyl}-phenyl)-carbamic acid tert-butyl ester] | 0
11 | CCC(C)C(Cn1cnc(N)c2nc(Sc3cc4c(cc3Br)OCO4)nc1-2)c1ccccc1 (centres unmarked) [Example 100, 8-(6-bromo-benzo[1,3]dioxol-5-ylsulfanyl)-3-(3-methyl-2-phenyl-pentyl)-3H-purin-6-ylamine] | 39
12 | COc1cc(CCn2c(Sc3cc(OC)ccc3OC)nc3c(N)ncnc32)cc(OC)c1 [Example 193, 9-[2-(3,5-dimethoxy-phenyl)-ethyl]-8-(2,5-dimethoxy-phenylsulfanyl)-9H-purin-6-ylamine] | 39
13 | COc1ccc(F)cc1Sc1nc2c(N)ncn(CCc3ccccc3)c-2n1 [Example 313, 8-[(5-Fluoro-2-methoxyphenyl)thio]-3-(2-phenylethyl)-3H-purin-6-amine] | 3.0

Same assay, conditions: BODIPY-GM 10 nM, Hsp90 30 nM

Row | SMILES | IC50 [µM]
14 | COc1cc(Sc2nc3c(N)ncnc3n2CCc2ccccc2)c(Cl)c(OC)c1OC [Example 286, 8-[(2-Chloro-3,4,5-trimethoxyphenyl)thio]-9-(2-phenylethyl)-9H-purin-6-amine] | 3
15 | Nc1ncn(CCc2ccccc2)c2nc(Sc3cc4c(cc3Br)OCO4)nc1-2 [Example 14, 8-(6-bromo-benzo[1,3]dioxol-5-ylsulfanyl)-3-phenethyl-3H-purin-6-ylamine] | 5
16 | COC(=O)c1ccnc(Sc2nc3c(N)ncnc3n2CCC2CCN(C=O)CC2)c1 [Example 542, Methyl 2-({6-amino-9-[2-(1-formylpiperidin-4-yl)ethyl]-9 H-purin-8-yl}thio)isonicotinate] | > 5
17 | COc1ccc(I)c(Sc2nc3c(N)ncnc3n2CCc2ccc(I)cc2)c1 [Example 310, 8-[(2-Iodo-5-methoxyphenyl)thio]-9-[2-(4-iodophenyl)ethyl]-9H-purin-6-amine] | > 25
18 | CCOP(=O)(OCC)N1CCCCC1CCn1c(Sc2cc3c(cc2Br)OCO3)nc2c(N)ncnc21 (centres unmarked) [Example 643, Diethyl [2-(2-{6-amino-8-[(6-bromo-1,3-benzodioxol-5-yl)thio]-9 H-purin-9-yl}ethyl)piperidin-1-yl]phosphonate] | 5
19 | CCOc1ccc(OCC)c(Sc2nc3c(N)ncnc3n2CCC2CCN(C(=O)OC(C)(C)C)CC2)c1 [Example 362, tert-Butyl 4-(2-{6-amino-8-[(2,5-diethoxyphenyl)thio]-9H-purin-9-yl}ethyl)piperidine-1-carboxylate] | > 25
20 | CC(=O)N1CCC(CCn2c(Sc3cc(F)c(F)cc3Br)nc3c(N)ncnc32)CC1 [Example 560, 9-[2-(1-Acetylpiperidin-4-yl)ethyl]-8-[(2-bromo-4,5-difluorophenyl)thio]-9 H-purin-6-amine] | > 5
21 | COc1cccc(CCn2c(Sc3cc4c(cc3Br)OCO4)nc3c(N)ncnc32)c1 [Example 308, 8-[(6-Bromo-1,3-benzodioxol-5-yl)thio]-9-[2-(3-methoxyphenyl)ethyl]-9H-purin-6-amine] | 0.18
22 | COc1ccc(OC)c(Sc2nc3c(N)ncnc3n2CCc2cc(C)cc(C)c2)c1 [Example 132, 8-(2,5-Dimethoxy-phenylsulfanyl)-9-[2-(3,5-dimethyl-phenyl)-ethyl]-9H-purine-6-ylamine] | 0.5
23 | CCC(Cn1cnc(N)c2nc(Sc3cc(OC)ccc3OC)nc1-2)c1ccccc1 (centres unmarked) [Example 88] | 1.3
24 | C[C@H](NC(=O)OC(C)(C)C)C(=O)N1CCCC(Cn2c(Sc3cc4c(cc3Br)OCO4)nc3c(N)ncnc32)C1 (stereo partly drawn) [Example 778, tert-Butyl {(1S)-2-[3-({6-amino-8-[(6-bromo-1,3-benzodioxol-5-yl)thio]-9H-purin-9-yl}methyl)piperidin-1-yl]-1-methyl-2-oxoethyl}carbamate] | 2
25 | COc1ccc(OC)c(Sc2nc3c(N)ncn(CCc4ccc(F)cc4)c-3n2)c1 [Example 10, 8-(2,5-dimethoxy-phenylsulfanyl)-3-[2-(4-fluoro-phenyl)-ethyl]-3H-purin-6-ylamine] | > 50
26 | COc1ccccc1CCn1c(Sc2cc3c(cc2Br)OCO3)nc2c(N)ncnc21 [Example 287, 8-[(6-Bromo-1,3-benzodioxol-5-yl)thio]-9-[2-(2-methoxyphenyl)ethyl]-9H-purin-6-amine] | 0.06
27 | Nc1ncnc2c1nc(Sc1cc3c(cc1Br)OCO3)n2CCC1CCN(C(=O)C2CC2(F)F)CC1 (centres unmarked) [Example 524, 8-[(6-Bromo-1,3-benzodioxol-5-yl)thio]-9-(2-{1-[(2,2-difluorocyclopropyl)carbonyl]piperidin-4-yl}ethyl)-9 H-purin-6-amine] | 0.1
28 | N#Cc1cc2c(cc1Sc1nc3c(N)ncnc3n1CCc1ccccc1Cl)OCO2 [Example 326, 6-({6-Amino-9-[2-(2-chlorophenyl)ethyl]-9H-purin-8-yl}thio)-1,3-benzodioxole-5-carbonitrile] | 0.035
29 | Nc1ncnc2c1nc(Sc1cc3c(cc1Br)OCO3)n2CCC1CCCCN1S(=O)(=O)C(F)(F)F (centres unmarked) [Example 396, 8-[(6-Bromo-1,3-benzodioxol-5-yl)thio]-9-(2-{1-[(trifluoromethyl)sulfonyl]piperidin 2-yl}ethyl)-9H-purin-6-amine] | 0.81
30 | CC(C)(C)OC(=O)N1CCC[C@@H](CCn2c(Sc3cc4c(cc3Br)OCO4)nc3c(N)ncnc32)C1 [Example 391, tert-Butyl (3S)-3-(2-{6-amino-8-[(6-bromo-1,3-benzodioxol-5-yl)thio]-9H-purin-9-yl}ethyl)piperidine-1-carboxylate] | 1.2
31 | Nc1ncnc2c1nc(Sc1ccc3c(c1)OCO3)n2CCc1ccccc1Cl [Example 289, 8-(1,3-Benzodioxol-5-ylthio)-9-[2-(2-chlorophenyl)ethyl]-9H-purin-6-amine] | 1.6
32 | CC(=O)N1CCN(CCn2cnc(N)c3nc(Sc4cc5c(cc4Br)OCO5)nc2-3)CC1 [Example 383, 3-[2-(4-Acetylpiperazin-1-yl)ethyl]-8-[(6-bromo-1,3-benzodioxol-5-yl)thio]-3H-purin-6-amine] | 21
33 | Nc1ncnc2c1nc(Sc1cc3c(cc1Br)OCO3)n2CCc1ccc(Cl)cc1F [Example 39, 8-(6-Bromo-benzo[1,3]dioxol-5-ylsulfanyl)-9-[2-(4-chloro-2-fluorophenyl)-ethyl]-9H-purin-6-ylamine] | 0.23
34 | CC(C)n1nnnc1N1CCC(CCn2c(Sc3cc4c(cc3Br)OCO4)nc3c(N)ncnc32)CC1 [Example 612, 8-[(6-Bromo-1,3-benzodioxol-5-yl)thio]-9-{2-[1-(1-isopropyl-1 H-tetrazol-5-yl)piperidin-4-yl]ethyl}-9 H-purin-6-amine] | 0.23
35 | COc1cc(CCn2c(Sc3cc(OC)ccc3OC)nc3c(N)ncnc32)cc(OC)c1 [Example 193, 9-[2-(3,5-dimethoxy-phenyl)-ethyl]-8-(2,5-dimethoxy-phenylsulfanyl)-9H-purin-6-ylamine] | 0.31
36 | CC(C)[C@@H]1C[C@H](CCn2c(Sc3cc4c(cc3Br)OCO4)nc3c(N)ncnc32)CCN1C(=O)OC(C)(C)C (relative stereo) [Example 429, tert-Butyl cis-4-(2-{6-amino-8-[(6-bromo-1,3-benzodioxol-5-yl)thio]-9H-purin-9-yl}ethyl)-2-isopropylpiperidine-1-carboxylate] | 3.8
37 | CS(=O)(=O)N1CCCC(CCn2cnc(N)c3nc(Sc4cc5c(cc4Br)OCO5)nc2-3)C1 (centres unmarked) [Example 370, 8-[(6-Bromo-1,3-benzodioxol-5-yl)thio]-3-{2-[1-(methylsulfonyl)piperidin-3-yl]ethyl}-3H-purin-6-amine] | 0.6
38 | COc1cc(I)c(Sc2nc3c(N)ncnc3n2CCc2ccccc2Cl)cc1OC [Example 261, 9-[2-(2-Chlorophenyl)ethyl]-8-[(2-iodo-4,5-dimethoxyphenyl)thio]-9H-purin-6-amine] | > 25
